From the NIST ThermoML archive (doi:10.1021/acs.jced.9b00607)

Tests used:
[1] = 102 kPa, Liquid; for viscosity: Falling or rolling sphere viscometry; for mass density: Vibrating tube method
[2] = wn = mass fraction of the nth substance listed; conditions: 102 kPa, Liquid, w2 = 0; for viscosity: Falling or rolling sphere viscometry; for mass density: Vibrating tube method

OCCO [1,2-ethanediol]
[1]
Conditions	mass density [kg/m3]	viscosity [mPa·s]
283.15 K	1120	34.07
298.15 K	–	17.27
313.15 K	1099.1	9.69
323.15 K	1091.6	6.81
333.15 K	1085	5.28
343.15 K	1077.6	4.06
353.15 K	1070.1	3.21

OCCO [1,2-ethanediol] + CN(CCO)CCO
[2]
Conditions	mass density [kg/m3]	viscosity [mPa·s]
283.15 K	1120	34.07
298.15 K	–	17.27
313.15 K	1099.1	9.69
323.15 K	1091.6	6.81
333.15 K	1085	5.28
343.15 K	1077.6	4.06
353.15 K	1070.1	3.21

CN(CCO)CCO [N-methyldiethanolamine]
[1]
Conditions	mass density [kg/m3]	viscosity [mPa·s]
283.15 K	1048	198.15
298.15 K	1036.8	74.87
313.15 K	1025.3	35.05
323.15 K	1017.7	21.96
333.15 K	1010	14.83
343.15 K	1002.2	10.29
353.15 K	994.5	7.4

O [water]
[1]
Conditions	mass density [kg/m3]	viscosity [mPa·s]
283.15 K	999.9	1.32
298.15 K	997.2	0.91
313.15 K	992.3	0.67
323.15 K	988.3	0.57
333.15 K	983.5	–
343.15 K	978.1	–
353.15 K	972.3	–
